Activity calls are given as the source filed them. No cut-off for these calls is given here.
Assays:
[1] = molecular target: Casein kinase I isoform gamma-2 (Homo sapiens) (UniProt P78368); experiment: Inhibition of human CK1gamma2 assessed as residual activity at 1 uM using casein as substrate in presence of 33P-ATP by ProQinase assay relative to control
[2] = molecular target: Focal adhesion kinase 1 (Homo sapiens) (UniProt Q05397); experiment: Inhibition of FAK (unknown origin) assessed as remaining activity at 1 uM by Kinome scan method relative to control
[3] = Anti-inflammatory activity against human derived high respond PBMC cells assessed as inhibition in stimulated IL-8 cytokine release incubated for 2 hrs in the presence of LPS/SEB/aCD28 by Luminex based sandwich immunoassay; type: functional, cell-based
[4] = molecular target: NUAK family SNF1-like kinase 2 (Homo sapiens) (UniProt Q9H093); experiment: Inhibition of SNARK (unknown origin) assessed as remaining activity at 1 uM by Kinome scan method relative to control
[5] = molecular target: Calcium/calmodulin-dependent protein kinase type 1D (Homo sapiens) (UniProt Q8IU85); experiment: Inhibition of human CAMK1D assessed as residual activity at 1 uM using RBER-CHKtide as substrate in presence of 33P-ATP by ProQinase assay relative to control
[6] = molecular target: MAP kinase p38 (Homo sapiens) (UniProt O15264+Q15759+Q16539+P53778); experiment: Inhibition of p38-MAPK in human THP-1 cells assessed as change in HSP27 phosphorylation at Ser82 level at 80 nM preincubated for 30 mins in the presence of TNFalpha stimulation for 20 mins by western blot analysis; type: cell-based
[7] = molecular target: Leukocyte tyrosine kinase receptor (Homo sapiens) (UniProt P29376); experiment: Inhibition of LTK (unknown origin) assessed as remaining activity at 1 uM by Kinome scan method relative to control
[8] = system: Receptor-type tyrosine-protein kinase FLT3 (Homo sapiens), P36888 [D835H]; experiment: Inhibition of FLT3 D835H mutant (unknown origin) assessed as remaining activity at 1 uM by Kinome scan method relative to control
[9] = molecular target: Serine/threonine-protein kinase MRCK beta (Homo sapiens) (UniProt Q9Y5S2); experiment: Inhibition of human CDC42BPB assessed as residual activity at 1 uM using RB-S6P as substrate in presence of 33P-ATP by ProQinase assay relative to control
[10] = system: Epidermal growth factor receptor (Homo sapiens), P00533 [UNDEFINED MUTATION]; experiment: Inhibition of human EGFR d746-750 mutant assessed as residual activity at 1 uM using PolyEY as substrate in presence of 33P-ATP by ProQinase assay relative to control
[11] = molecular target: STE20/SPS1-related proline-alanine-rich protein kinase (Homo sapiens) (UniProt Q9UEW8); experiment: Inhibition of human STK39 assessed as residual activity at 1 uM using RBER-CDC25tide as substrate in presence of 33P-ATP by ProQinase assay relative to control
[12] = molecular target: Angiopoietin-1 receptor (Homo sapiens) (UniProt Q02763); experiment: Inhibition of TIE2 (unknown origin) assessed as remaining activity at 1 uM by Kinome scan method relative to control
[13] = molecular target: Ephrin type-B receptor 3 (Homo sapiens) (UniProt P54753); experiment: Inhibition of EPHB3 (unknown origin) assessed as remaining activity at 1 uM by Kinome scan method relative to control
[14] = molecular target: Serine/threonine-protein kinase WNK3 (Homo sapiens) (UniProt Q9BYP7); experiment: Inhibition of human WNK3 assessed as residual activity at 1 uM using RB-S6P as substrate in presence of 33P-ATP by ProQinase assay relative to control
[15] = molecular target: Dual specificity protein kinase CLK1 (Homo sapiens) (UniProt P49759); experiment: Inhibition of human CLK1 assessed as residual activity at 1 uM using autophos as substrate in presence of 33P-ATP by ProQinase assay relative to control
[16] = Anti-inflammatory activity against human derived medium respond PBMC cells assessed as inhibition in stimulated IL-5 cytokine release incubated for 2 hrs in the presence of LPS/SEB/aCD28 by Luminex based sandwich immunoassay; type: functional, cell-based
[17] = molecular target: Phosphatidylinositol 4-phosphate 3-kinase C2 domain-containing subunit beta (Homo sapiens) (UniProt O00750); experiment: Inhibition of PIK3C2B (unknown origin) assessed as remaining activity at 1 uM by Kinome scan method relative to control
[18] = molecular target: Proto-oncogene tyrosine-protein kinase receptor Ret (Homo sapiens) (UniProt P07949); experiment: Inhibition of human RET assessed as residual activity at 1 uM using polyEY as substrate in presence of 33P-ATP by ProQinase assay relative to control
[19] = molecular target: Serine/threonine-protein kinase PAK 3 (Homo sapiens) (UniProt O75914); experiment: Inhibition of PAK3 (unknown origin) assessed as remaining activity at 1 uM by Kinome scan method relative to control
[20] = molecular target: Calcium/calmodulin-dependent protein kinase type II subunit beta (Homo sapiens) (UniProt Q13554); experiment: Inhibition of CAMK2B (unknown origin) assessed as remaining activity at 1 uM by Kinome scan method relative to control
[21] = molecular target: Casein kinase I isoform gamma-3 (Homo sapiens) (UniProt Q9Y6M4); experiment: Inhibition of human CK1gamma3 assessed as residual activity at 1 uM using casein as substrate in presence of 33P-ATP by ProQinase assay relative to control
[22] = molecular target: SRSF protein kinase 1 (Homo sapiens) (UniProt Q96SB4); experiment: Inhibition of SRPK1 (unknown origin) assessed as remaining activity at 1 uM by Kinome scan method relative to control
[23] = molecular target: Mitogen-activated protein kinase 1 (Homo sapiens) (UniProt P28482); experiment: Inhibition of human ERK2 assessed as residual activity at 1 uM using RBER-CHKtide as substrate in presence of 33P-ATP by ProQinase assay relative to control
[24] = molecular target: Serine/threonine-protein kinase PAK 3 (Homo sapiens) (UniProt O75914); experiment: Inhibition of human PAK3 assessed as residual activity at 1 uM using bio-4xCHKT as substrate in presence of 33P-ATP by ProQinase assay relative to control
[25] = molecular target: Ephrin type-A receptor 8 (Homo sapiens) (UniProt P29322); experiment: Inhibition of EPHA8 (unknown origin) assessed as remaining activity at 1 uM by Kinome scan method relative to control
[26] = system: PBMC; experiment: Anti-inflammatory activity against human derived medium respond PBMC cells assessed as increase in stimulated IL-12p70 cytokine release at 1 uM incubated for 2 hrs in the presence of LPS/SEB/aCD28 by Luminex based sandwich immunoassay; type: functional, cell-based
[27] = molecular target: Serine/threonine-protein kinase Nek11 (Homo sapiens) (UniProt Q8NG66); experiment: Inhibition of human NEK11 assessed as residual activity at 1 uM using MBP as substrate in presence of 33P-ATP by ProQinase assay relative to control

Chain of Serine/threonine-protein kinase PAK 3 (Homo sapiens) (O75914 whole entry, looked up): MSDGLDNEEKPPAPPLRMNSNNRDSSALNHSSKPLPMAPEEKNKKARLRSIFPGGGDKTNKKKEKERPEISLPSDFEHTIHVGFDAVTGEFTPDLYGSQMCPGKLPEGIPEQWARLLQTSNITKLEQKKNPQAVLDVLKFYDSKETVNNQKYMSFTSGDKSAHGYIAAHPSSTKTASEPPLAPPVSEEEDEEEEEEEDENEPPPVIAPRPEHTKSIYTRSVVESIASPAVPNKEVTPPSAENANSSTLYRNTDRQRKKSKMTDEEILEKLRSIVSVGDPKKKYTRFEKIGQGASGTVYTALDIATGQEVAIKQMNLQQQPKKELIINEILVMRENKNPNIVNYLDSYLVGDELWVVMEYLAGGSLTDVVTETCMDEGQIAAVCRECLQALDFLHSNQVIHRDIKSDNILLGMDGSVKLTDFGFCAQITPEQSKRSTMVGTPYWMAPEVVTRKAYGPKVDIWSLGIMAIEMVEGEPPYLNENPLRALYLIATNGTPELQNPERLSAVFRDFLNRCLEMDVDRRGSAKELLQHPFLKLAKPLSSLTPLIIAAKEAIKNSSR
Chain of Epidermal growth factor receptor (Homo sapiens), P00533 [UNDEFINED MUTATION] (P00533 whole entry, looked up, change not shown): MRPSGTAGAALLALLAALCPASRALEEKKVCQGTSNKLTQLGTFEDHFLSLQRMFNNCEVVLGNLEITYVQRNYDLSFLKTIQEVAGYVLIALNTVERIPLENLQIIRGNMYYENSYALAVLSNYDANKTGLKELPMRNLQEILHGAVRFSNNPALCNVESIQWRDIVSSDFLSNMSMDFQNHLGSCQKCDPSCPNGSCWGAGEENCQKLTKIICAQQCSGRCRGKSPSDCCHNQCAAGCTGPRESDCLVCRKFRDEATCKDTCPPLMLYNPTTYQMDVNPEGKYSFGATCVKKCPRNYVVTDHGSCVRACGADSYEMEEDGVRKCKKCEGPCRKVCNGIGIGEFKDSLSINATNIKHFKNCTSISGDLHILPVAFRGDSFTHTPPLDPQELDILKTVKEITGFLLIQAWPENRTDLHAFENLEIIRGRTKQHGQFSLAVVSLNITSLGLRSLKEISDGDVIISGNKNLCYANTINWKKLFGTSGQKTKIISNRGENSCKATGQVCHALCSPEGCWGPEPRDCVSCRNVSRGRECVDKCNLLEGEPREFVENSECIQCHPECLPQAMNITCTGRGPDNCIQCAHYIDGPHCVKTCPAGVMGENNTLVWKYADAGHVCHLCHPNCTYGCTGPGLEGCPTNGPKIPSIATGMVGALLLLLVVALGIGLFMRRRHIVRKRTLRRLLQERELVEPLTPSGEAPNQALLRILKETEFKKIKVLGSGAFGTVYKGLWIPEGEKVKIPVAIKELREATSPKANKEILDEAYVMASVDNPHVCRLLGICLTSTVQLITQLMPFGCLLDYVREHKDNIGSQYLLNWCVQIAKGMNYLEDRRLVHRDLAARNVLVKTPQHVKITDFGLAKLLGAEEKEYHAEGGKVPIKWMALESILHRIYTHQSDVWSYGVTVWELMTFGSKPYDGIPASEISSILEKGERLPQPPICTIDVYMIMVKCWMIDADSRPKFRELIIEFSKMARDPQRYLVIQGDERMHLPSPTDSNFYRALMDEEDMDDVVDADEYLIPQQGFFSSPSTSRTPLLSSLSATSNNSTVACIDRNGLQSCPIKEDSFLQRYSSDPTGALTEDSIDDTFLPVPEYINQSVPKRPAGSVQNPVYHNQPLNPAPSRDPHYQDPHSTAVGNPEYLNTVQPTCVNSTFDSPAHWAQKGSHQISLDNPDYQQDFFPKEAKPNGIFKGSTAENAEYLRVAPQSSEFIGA
Chain of Mitogen-activated protein kinase 1 (Homo sapiens) (P28482 whole entry): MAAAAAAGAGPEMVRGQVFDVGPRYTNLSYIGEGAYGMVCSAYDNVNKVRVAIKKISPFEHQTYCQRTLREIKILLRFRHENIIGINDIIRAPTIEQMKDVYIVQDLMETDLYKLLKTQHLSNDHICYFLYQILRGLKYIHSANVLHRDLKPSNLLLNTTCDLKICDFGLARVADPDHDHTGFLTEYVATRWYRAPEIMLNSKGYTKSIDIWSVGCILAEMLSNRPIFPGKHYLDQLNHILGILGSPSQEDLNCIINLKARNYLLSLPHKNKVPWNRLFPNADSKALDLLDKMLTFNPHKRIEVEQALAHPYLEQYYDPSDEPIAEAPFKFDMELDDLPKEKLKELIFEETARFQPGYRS
Chain of NUAK family SNF1-like kinase 2 (Homo sapiens) (Q9H093 whole entry): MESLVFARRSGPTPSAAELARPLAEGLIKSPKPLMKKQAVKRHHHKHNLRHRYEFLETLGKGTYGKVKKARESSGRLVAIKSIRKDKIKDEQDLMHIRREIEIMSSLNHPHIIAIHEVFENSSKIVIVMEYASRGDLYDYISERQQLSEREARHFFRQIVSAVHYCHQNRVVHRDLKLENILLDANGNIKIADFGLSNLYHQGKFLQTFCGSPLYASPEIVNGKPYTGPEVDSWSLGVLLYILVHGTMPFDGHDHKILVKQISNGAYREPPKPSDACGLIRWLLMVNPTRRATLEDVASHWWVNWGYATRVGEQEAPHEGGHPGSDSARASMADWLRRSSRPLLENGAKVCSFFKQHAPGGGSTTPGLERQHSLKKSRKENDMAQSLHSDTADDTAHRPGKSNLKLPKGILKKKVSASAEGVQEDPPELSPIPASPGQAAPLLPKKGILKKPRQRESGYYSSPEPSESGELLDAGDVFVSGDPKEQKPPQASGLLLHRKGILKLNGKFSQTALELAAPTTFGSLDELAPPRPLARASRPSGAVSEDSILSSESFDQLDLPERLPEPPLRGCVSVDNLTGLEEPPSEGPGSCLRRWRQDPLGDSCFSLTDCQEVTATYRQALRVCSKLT
Chain of SRSF protein kinase 1 (Homo sapiens) (Q96SB4 whole entry): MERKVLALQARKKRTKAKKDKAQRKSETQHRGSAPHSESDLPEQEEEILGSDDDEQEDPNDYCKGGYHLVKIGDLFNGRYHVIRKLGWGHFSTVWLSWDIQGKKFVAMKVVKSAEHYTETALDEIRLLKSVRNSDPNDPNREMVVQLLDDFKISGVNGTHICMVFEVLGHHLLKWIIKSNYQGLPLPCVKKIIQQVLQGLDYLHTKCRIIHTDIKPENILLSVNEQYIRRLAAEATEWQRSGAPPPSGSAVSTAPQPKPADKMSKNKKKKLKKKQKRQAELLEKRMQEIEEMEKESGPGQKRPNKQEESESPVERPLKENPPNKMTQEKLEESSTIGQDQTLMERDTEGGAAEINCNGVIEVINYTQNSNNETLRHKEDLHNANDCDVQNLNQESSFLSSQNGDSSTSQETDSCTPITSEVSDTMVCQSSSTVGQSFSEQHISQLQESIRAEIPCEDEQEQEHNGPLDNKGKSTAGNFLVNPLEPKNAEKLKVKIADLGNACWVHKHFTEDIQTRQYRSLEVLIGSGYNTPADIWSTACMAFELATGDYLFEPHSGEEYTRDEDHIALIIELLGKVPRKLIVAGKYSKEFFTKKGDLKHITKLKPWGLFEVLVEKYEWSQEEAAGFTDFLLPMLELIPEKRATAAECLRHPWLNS
Chain of Angiopoietin-1 receptor (Homo sapiens) (Q02763 whole entry): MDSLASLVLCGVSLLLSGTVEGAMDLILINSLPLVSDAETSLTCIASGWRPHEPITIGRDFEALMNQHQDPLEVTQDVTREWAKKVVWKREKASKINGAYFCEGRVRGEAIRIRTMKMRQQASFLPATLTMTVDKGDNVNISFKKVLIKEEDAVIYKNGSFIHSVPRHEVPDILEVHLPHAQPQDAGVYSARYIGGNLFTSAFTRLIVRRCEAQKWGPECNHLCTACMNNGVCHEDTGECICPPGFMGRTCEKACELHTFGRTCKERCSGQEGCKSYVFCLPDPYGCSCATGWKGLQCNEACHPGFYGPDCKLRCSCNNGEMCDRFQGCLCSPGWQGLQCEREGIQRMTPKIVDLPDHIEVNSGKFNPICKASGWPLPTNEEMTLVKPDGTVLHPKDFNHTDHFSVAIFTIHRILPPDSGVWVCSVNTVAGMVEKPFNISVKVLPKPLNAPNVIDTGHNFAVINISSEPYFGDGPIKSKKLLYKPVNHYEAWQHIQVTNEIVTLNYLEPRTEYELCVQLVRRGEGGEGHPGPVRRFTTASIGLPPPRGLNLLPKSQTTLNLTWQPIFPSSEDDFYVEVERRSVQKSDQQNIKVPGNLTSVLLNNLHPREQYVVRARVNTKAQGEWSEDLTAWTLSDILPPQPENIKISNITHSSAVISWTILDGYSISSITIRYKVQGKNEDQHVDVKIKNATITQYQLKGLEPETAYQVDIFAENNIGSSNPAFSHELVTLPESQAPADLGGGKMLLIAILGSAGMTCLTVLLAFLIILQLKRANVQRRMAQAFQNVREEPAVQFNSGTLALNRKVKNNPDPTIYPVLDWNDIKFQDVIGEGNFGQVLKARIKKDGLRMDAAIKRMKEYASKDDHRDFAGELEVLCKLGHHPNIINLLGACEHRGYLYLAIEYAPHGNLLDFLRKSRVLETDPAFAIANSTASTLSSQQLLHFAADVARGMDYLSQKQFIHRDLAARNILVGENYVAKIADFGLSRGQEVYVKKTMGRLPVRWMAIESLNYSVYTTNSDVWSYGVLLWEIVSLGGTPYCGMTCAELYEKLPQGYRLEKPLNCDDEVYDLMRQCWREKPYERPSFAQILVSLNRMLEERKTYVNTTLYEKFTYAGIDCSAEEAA
Chain of Dual specificity protein kinase CLK1 (Homo sapiens) (P49759 whole entry, looked up): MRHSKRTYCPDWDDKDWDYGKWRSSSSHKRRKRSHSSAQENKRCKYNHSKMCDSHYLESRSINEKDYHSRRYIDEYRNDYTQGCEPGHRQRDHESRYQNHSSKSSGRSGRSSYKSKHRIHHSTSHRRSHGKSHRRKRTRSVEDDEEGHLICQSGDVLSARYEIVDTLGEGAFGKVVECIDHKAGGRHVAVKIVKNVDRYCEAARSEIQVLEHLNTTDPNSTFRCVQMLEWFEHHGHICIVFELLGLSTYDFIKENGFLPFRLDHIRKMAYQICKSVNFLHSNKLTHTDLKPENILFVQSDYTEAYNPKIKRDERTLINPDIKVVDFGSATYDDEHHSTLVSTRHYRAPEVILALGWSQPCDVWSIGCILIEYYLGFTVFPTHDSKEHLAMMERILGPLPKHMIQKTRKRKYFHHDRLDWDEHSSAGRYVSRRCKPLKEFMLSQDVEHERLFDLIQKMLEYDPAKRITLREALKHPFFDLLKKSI

Q: Which results are given for O=C1c2ccc(Nc3ccc(F)cc3F)cc2CCc2ccc(OC[C@H](O)CO)cc21 [Skepinone-L]?
A: Activity [1]: 98%; Activity [2]: 100%; IC50 [3]: 90 nM; Activity [4]: 100%; Activity [5]: 106%; inhibition [6]: Active; Activity [7]: 100%; Activity [8]: 88%; Activity [9]: 83%; Activity [10]: 100%; Activity [11]: 53%; Activity [12]: 100%; Activity [13]: 100%; Activity [14]: 100%; Activity [15]: 106%; IC50 [16]: Not Active; Activity [17]: 100%; Activity [18]: 102%; Activity [19]: 100%; Activity [20]: 100%; Activity [21]: 95%; Activity [22]: 100%; Activity [23]: 83%; Activity [24]: 107%; Activity [25]: 90%; Activity [26]: Active; Activity [27]: 113%
